Assay results: patent publication US12116358B2, “Substituted indoles and methods of use thereof” (EPIZYME, INC., priority 2018, dated 2024)
Read-outs that look alike come from different tables or passages of the source.

What was measured:
H3K36me3 in A549 cells = assay: In-Cell Western (ICW) assay of SETD2 inhibitors (A549 assay); assay type: cell-based, human; conditions: A549 cells, read-out: SETD2 A549
How it was run: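 H3K36me3 In-Cell Western: cells exposed to compound for 3 days at 4,000 cells/well, 37° C. DRAQ5 (1:1000) marked cell number, with 700/800-channel Licor read-out.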

SETD2(1434-1711) = target: T1, SETD2(1434-1711) (Homo sapiens, UniProt Q9BYW2); assay: SETD2 (1434-1711) assay; assay type: biochemical; conditions: read-out: SETD2 (1434-1711)
T1 construct: SETD2 (1434-1711) Assay; catalogue N/A
T1 sequence (Q9BYW2 1434-1711): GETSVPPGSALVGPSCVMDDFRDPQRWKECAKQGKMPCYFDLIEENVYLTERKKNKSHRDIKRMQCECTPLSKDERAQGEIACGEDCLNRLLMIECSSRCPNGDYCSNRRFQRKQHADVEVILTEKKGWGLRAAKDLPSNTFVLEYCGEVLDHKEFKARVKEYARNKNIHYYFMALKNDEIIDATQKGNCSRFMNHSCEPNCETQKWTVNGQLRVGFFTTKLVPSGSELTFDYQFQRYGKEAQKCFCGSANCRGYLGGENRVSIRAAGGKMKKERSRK

IC50 (H3K36me3 in A549 cells; Homo sapiens) [µM]	IC50 (SETD2(1434-1711)) [µM]	IC50 (H3K36me3 in A549 cells) [µM]	SMILES
8.9	4.2	–	Cc1cccnc1C(NC(=O)c1cc2cccc(C)c2[nH]1)C(C)C (stereo not shown) [compound 474]
9.1	0.8	–	Cc1ccc(N2CCN(S(=O)(=O)CCN)CC2)cc1NC(=O)c1cc2cccc(C)c2[nH]1 [compound 476]
9.3	2.1	–	Cc1cc(CN2CCN(C)CC2)cnc1C(NC(=O)c1cc2cccc(C)c2[nH]1)C1CC1 (stereo not shown) [compound 477]
9.4	4.1	–	Cc1cccc2cc(C(=O)Nc3cccc(CN4CCOCC4)c3)[nH]c12 [compound 478]
9.5	7	–	Cc1cccnc1C(C)NC(=O)c1cc2cccc(C)c2[nH]1 (stereo not shown) [compound 480]
–	1.9	9.7	Cc1cc2nccn2nc1C(NC(=O)c1cc2c(F)ccc(C)c2[nH]1)C1CC1 (stereo not shown) [compound 481]
–	2.2	10.2	Cc1cccc2cc(C(=O)NC3C(=O)NCCc4ccccc43)[nH]c12 (stereo not shown) [compound 482]
–	4.1	10.3	Cc1cccc2cc(C(=O)NCC(C)c3ccccc3N3CCOCC3)[nH]c12 (stereo not shown) [compound 483]
–	7.6	10.6	Cc1cccc2cc(C(=O)Nc3cnc4nccn4c3)[nH]c12 [compound 484]
10.8	1.8	–	CCN(CC)Cc1cccc(NC(=O)c2cc3cccc(C)c3[nH]2)c1 [compound 486]
–	1.6	11	Cc1cccc2cc(C(=O)Nc3ccc4ccc(CN5CCOCC5)cc4c3)[nH]c12 [compound 487]
–	2.5	11.8	Cc1cccc2cc(C(=O)Nc3cccc(CN4CCN(C)CC4)c3)[nH]c12 [compound 488]
11.8	7.9	–	Cc1cccnc1C(CN1CCOCC1)NC(=O)c1cc2cccc(C)c2[nH]1 (stereo not shown) [compound 489]
–	6.5	12.1	Cc1ccc(N2CCOCC2)cc1NC(=O)c1cc2cccc(C)c2[nH]1 [compound 490]
–	12.1	12.2	Cc1ccc(F)c2cc(C(=O)NC(C(=O)N(C)C)c3ccccn3)[nH]c12 (stereo not shown) [compound 491]
12.5	> 50	–	Cc1cccc(O)c1C(NC(=O)c1cc2cccc(C)c2[nH]1)C1CC1 (stereo not shown) [compound 492]
13.1	> 50	–	Cc1cncnc1C(NC(=O)c1cc2cccc(C)c2[nH]1)C1CC1 (stereo not shown) [compound 493]
–	6	13.2	Cc1cccnc1C(CCCC(=O)N1CCOCC1)NC(=O)c1cc2cccc(C)c2[nH]1 (stereo not shown) [compound 494]
–	1.8	13.3	Cc1cccc2cc(C(=O)Nc3ccc4ncc(CN(C)C)n4c3C)[nH]c12 [compound 495]
–	0.4	13.4	Cc1cc(C(=O)N[C@H]2CC[C@H](N)CC2)cnc1C(NC(=O)c1cc2cccc(C)c2[nH]1)C1CC1 (stereo partly shown) [compound 496]
–	9.4	13.8	Cc1ccc(F)c2cc(C(=O)NC3CCCc4cccnc43)[nH]c12 (stereo not shown) [compound 498]
–	9.1	13.9	CC(=O)N1CCN(c2ccccc2CNC(=O)c2cc3cccc(C)c3[nH]2)CC1 [compound 499]

IC50 (H3K36me3 in A549 cells; Homo sapiens) [µM]	IC50 (SETD2(1434-1711)) [µM]	IC50 (H3K36me3 in A549 cells) [µM]	SMILES
–	3	14.5	Cc1cccnc1C(CC1CC1)NC(=O)c1cc2cccc(C)c2[nH]1 (stereo not shown) [compound 500]
–	0.4	14.6	Cc1ccc(F)c2cc(C(=O)Nc3cccc(-c4cnc(N)[nH]4)c3)[nH]c12 [compound 501]
–	0.5	14.7	Cc1ccc(F)c2cc(C(=O)Nc3cccc(-c4cc(N)on4)c3)[nH]c12 [compound 502]
–	9.7	14.8	Cc1ccc(F)c2cc(C(=O)NC(C(N)=O)c3ccccn3)[nH]c12 (stereo not shown) [compound 503]
–	3.8	14.9	Cc1cccc2cc(C(=O)N[C@H]3CC[C@H](C)CC3)[nH]c12 [compound 504]
–	11.2	14.9	Cc1cccc2cc(C(=O)NC3CCOCC3)[nH]c12 [compound 505]
–	4.9	15.1	Cc1ccc(=O)[nH]c1C(NC(=O)c1cc2cccc(C)c2[nH]1)C1CC1 (stereo not shown) [compound 506]
–	10.4	15.2	Cc1cccc2cc(C(=O)NCC3CCCCC3N3CCOCC3)[nH]c12 (stereo not shown) [compound 508]
–	0.6	15.5	Cc1cc(C(=O)NC2CCNC2)cnc1C(NC(=O)c1cc2cccc(C)c2[nH]1)C1CC1 (stereo not shown) [compound 510]
15.8	11.6	–	Cc1cccc2cc(C(=O)NCCc3ccccc3N3CCOCC3)[nH]c12 [compound 511]
–	13.2	16.1	CC(=O)N[C@H]1CC[C@H](NC(=O)c2cc3c(F)ccc(C)c3[nH]2)CC1 [compound 512]
–	4	17.4	Cc1cccnc1C(NC(=O)c1cc2cccc(C)c2[nH]1)C1CCC1 (stereo not shown) [compound 513]
–	24.9	18.3	COc1ccc(C)c2[nH]c(C(=O)NC(CCC(=O)N3CCOCC3)c3ncccc3C)cc12 (stereo not shown) [compound 514]
–	25.1	18.5	COc1cccc2cc(C(=O)NC(CCC(=O)N3CCOCC3)c3ncccc3C)[nH]c12 (stereo not shown) [compound 515]
–	0.4	18.5	Cc1cc(C(=O)NC2CCC(N)C2)cnc1C(NC(=O)c1cc2cccc(C)c2[nH]1)C1CC1 (stereo not shown) [compound 516]
–	3.7	18.5	Cc1ccc(F)c2cc(C(=O)NC(C(=O)Nc3ccccc3)c3ccccn3)[nH]c12 (stereo not shown) [compound 517]
–	50	19.3	Cc1ccc(F)c2cc(C(=O)Nc3nnc(C4CCN(C)CC4)s3)[nH]c12 [compound 519]
–	12.3	19.8	Cc1cccc2cc(C(=O)NC3CC(=O)Nc4ccccc4C3)[nH]c12 (stereo not shown) [compound 520]
19.9	6.9	–	CCc1cccnc1C(NC(=O)c1cc2cccc(C)c2[nH]1)C1CC1 (stereo not shown) [compound 521]
–	10.6	20.6	Cc1cccc2cc(C(=O)NC3CCCCC3)[nH]c12 [compound 522]
–	8.8	20.8	Cc1cccnc1C(CCC(=O)Nc1cccnc1)NC(=O)c1cc2cccc(C)c2[nH]1 (stereo not shown) [compound 523]
–	1.5	20.9	Cc1ccc(F)c2cc(C(=O)Nc3cccc(-c4nnc(N)[nH]4)c3)[nH]c12 [compound 524]

IC50 (H3K36me3 in A549 cells; Homo sapiens) [µM]	IC50 (SETD2(1434-1711)) [µM]	IC50 (H3K36me3 in A549 cells) [µM]	SMILES
–	12.6	20.9	COC(=O)CC(NC(=O)c1cc2cccc(C)c2[nH]1)c1ccc(Br)cc1 (stereo not shown) [compound 525]
22.6	1.9	–	Cc1cccc2cc(C(=O)Nc3ccc4ccccc4c3)[nH]c12 [compound 526]
–	14.7	24.2	COC(=O)CC(NC(=O)c1cc2cccc(C)c2[nH]1)c1ccc(C#N)cc1 (stereo not shown) [compound 527]
–	8.6	24.9	Cc1cc(C(=O)NC2CCN(C)CC2)c(C)nc1C(NC(=O)c1cc2cccc(C)c2[nH]1)C1CC1 (stereo not shown) [compound 529]
–	0.007	> 25	Cc1ccc(F)c2cc(C(=O)Nc3cccc(N4CCC(N5CCC(N)CC5)CC4)c3)[nH]c12 [compound 530]
> 25	0.2	–	Cc1cccc2cc(C(=O)Nc3cccc(N4CCC(NCCN)CC4)n3)[nH]c12 [compound 531]
–	0.2	> 25	Cc1ccc(F)c2cc(C(=O)Nc3cccc(-c4n[nH]c(=O)[nH]4)c3)[nH]c12 [compound 532]
–	0.4	> 25	Cc1cccc2cc(C(=O)Nc3ccc4ncncc4c3)[nH]c12 [compound 533]
–	0.6	> 25	Cc1cc(C(=O)NC2CNC2)cnc1C(NC(=O)c1cc2cccc(C)c2[nH]1)C1CC1 (stereo not shown) [compound 535]
–	0.8	> 25	Cc1ccc(F)c2cc(C(=O)Nc3ccc4ncc(CN(C)C)n4c3)[nH]c12 [compound 536]
> 25	0.9	–	CCN(CC)C1CCc2cc(NC(=O)c3cc4cccc(C)c4[nH]3)ccc2C1 (stereo not shown) [compound 537]
> 25	1	–	Cc1cccc2cc(C(=O)Nc3ccc4nc[nH]c(=O)c4c3)[nH]c12 [compound 538]
–	1.6	> 25	Cc1ccc(F)c2cc(C(=O)Nc3cccc(N4CCN(C)CC4c4ccccc4)c3)[nH]c12 (stereo not shown) [compound 539]
> 25	1.7	–	Cc1ccc(F)c2cc(C(=O)NCCc3ccccc3N3CCN(C)CC3)[nH]c12 [compound 540]
–	2	> 25	Cc1cccc2cc(C(=O)Nc3ccc4nc(CN5CCNCC5)ncc4c3)[nH]c12 [compound 541]
> 25	2.4	–	Cc1cc(CC(=O)O)cnc1C(NC(=O)c1cc2c(F)ccc(C)c2[nH]1)C1CC1 (stereo not shown) [compound 542]
–	2.6	> 25	Cc1cccc2cc(C(=O)NC3CCN(C(=O)CCCN)CC3C)[nH]c12 (stereo not shown) [compound 543]
–	2.9	> 25	Cc1cc(C(=O)O)cnc1C(NC(=O)c1cc2c(F)ccc(C)c2[nH]1)C1CC1 (stereo not shown) [compound 544]
–	3.1	> 25	Cc1ccc(F)c2cc(C(=O)Nc3cccc(-c4noc(=O)[nH]4)c3)[nH]c12 [compound 545]
> 25	3.9	–	Cc1cccc2cc(C(=O)Nc3ccc4nc(CN(C)C)cn4c3)[nH]c12 [compound 546]
–	4	> 25	Cc1ccc(F)c2cc(C(=O)Nc3cccc(N4CCOc5ccccc54)c3)[nH]c12 [compound 547]
